Test results published in BindingDB's records for doi:10.1021/acs.jmedchem.0c00546 (University of Tennessee, 2020).

Biological target: T1, Dihydrofolate reductase (Homo sapiens, UniProt P00374)
T1 sequence (P00374 whole entry): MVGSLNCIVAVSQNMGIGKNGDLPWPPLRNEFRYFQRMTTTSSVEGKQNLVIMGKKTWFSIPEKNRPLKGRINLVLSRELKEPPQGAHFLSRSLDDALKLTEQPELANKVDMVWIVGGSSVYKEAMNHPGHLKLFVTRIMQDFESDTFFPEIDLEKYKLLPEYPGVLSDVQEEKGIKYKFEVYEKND
Experiment: Inhibition of human DHFR in presence of DHF and NADPH by UV-vis spectrometry by Lineweaver-Burk plot analysis

SMILES | Ki [µM]
N[C@H](Cc1c[nH]c2ccccc12)C(=O)O [(2R)-2-amino-3-(1H-indol-3-yl)propanoic acid] | 880
Nc1ccnc(N)n1 [Diaminopyrimidine] | 180
